Test results: patent US20230013602A1, “NOVEL IMIDAZOPYRAZINE DERIVATIVES” (Hoffmann-La Roche Inc., priority 2018, published 2023)
Where a name gives a salt, the structure may show the parent alone.

test system: Acinetobacter baumannii ATCC 17978; experiment: Antimicrobial susceptibility testing, 90% growth inhibitory concentration (IC90) determination; type: cell-based; conditions: Acinetobacter baumannii ATCC17978, Iso-Sensitest broth, OD 600 nm over 16 h
Description: (§1) The in vitro antimicrobial activity of the compounds was determined according to the following procedure:
(§2) The assay used a 10-points Iso-Sensitest broth medium to measure quantitatively the in vitro activity of the compounds against Acinetobacter baumannii ATCC 17978 and Acinetobacter baumannii ATCC17961.
(§3) Stock compounds in DMSO were serially twofold diluted (e.g. range from 50 to 0.097 μM final concentration) in 384 wells microtiter plates and inoculated with 49 μl the bacterial suspension in Iso-Sensitest medium to have a final cell concentration of ˜5×10^(5) CFU/ml in a final volume/well of 50 ul/well. Microtiter plates were incubated at 35+2° C.
(§4) Bacterial cell growth was determined with the measurement of optical density at X=600 nm each 20 minutes over a time course of 16 h. Growth inhibition was calculated during the logarithmic growth of the bacterial cells with determination of the concentration inhibiting 50% (IC50) and 90% (IC90) of the growth.
(§5) Table 1 provides the 90% growth inhibitory concentrations (IC90) in micromoles per liter of the compounds of present invention obtained against the strain Acinetobacter baumannii ATCC17978 and Acinetobacter baumannii ATCC17961.

IC90 [nM]	SMILES
820	COc1ccc(-c2cnc3c(Nc4ccc(C(=O)N(C)C5CCNCC5)c(Cl)c4)nccn23)cc1F [Example 20, 2-chloro-4-[[3-(3-fluoro-4-methoxyphenyl)imidazo[1,2-a]pyrazin-8-yl]amino]-N-methyl-N-piperidin-4-ylbenzamide;hydrochloride]
482	CCc1cc(Nc2nccn3c(-c4ccc(OC)c(F)c4F)cnc23)ccc1C(=O)NC1(CN)COC1 [Example 40, N-(3-(aminomethyl)oxetan-3-yl)-4-((3-(2,3-difluoro-4-methoxyphenyl)imidazo[1,2-a]pyrazin-8-yl)amino)-2-ethylbenzamide hydrochloride]
930	CCc1cc(Nc2nccn3c(-c4ccc(OC)c(F)c4F)cnc23)ccc1C(=O)N[C@H]1CCNC1=O [Example 30, 4-[[3-(2,3-difluoro-4-methoxyphenyl)imidazo[1,2-a]pyrazin-8-yl]amino]-2-ethyl-N-[(3 S)-2-oxopyrrolidin-3-yl]benzamide]
1500	COc1ccc(-c2cnc3c(Nc4ccc(C(=O)Nc5ccc(C(=O)O)cc5)c(C)c4)nccn23)cc1F [Example 25, 4-[[4-[[3-(3-fluoro-4-methoxyphenyl)imidazo[1,2-a]pyrazin-8-yl]amino]-2-methylbenzoyl]amino] benzoic acid]
2700	COc1ccc(-c2cnc3c(Nc4ccc(C(=O)N[C@H]5CCNC[C@H]5F)c(C)c4)nccn23)cc1F [Example 26, 4-[[3-(3-fluoro-4-methoxyphenyl)imidazo[1,2-a]pyrazin-8-yl]amino]-N-[(3R,4S)-3-fluoropiperidin-4-yl]-2-methylbenzamide;2,2,2-trifluoroacetic acid]
5300	COc1ccc(-c2cnc3c(Nc4ccc(C(=O)N(C)C5CCN(C)CC5)c(C)c4)nccn23)cc1 [Example 15, 4-[[3-(4-methoxyphenyl)imidazo[1,2-a]pyrazin-8-yl]amino]-N,2-dimethyl-N-(1-methylpiperidin-4-yl)benzamide]
710	CCc1cc(Nc2nccn3c(-c4ccc(OC(F)F)c(F)c4F)cnc23)ccc1C(=O)NC1(CN)CC1 [Example 29, N-[1-(aminomethyl)cyclopropyl]-4-[[3-[4-(difluoromethoxy)-2,3-difluorophenyl]imidazo[1,2-a]pyrazin-8-yl]amino]-2-ethylbenzamide;hydrochloride]
370	CCc1cc(Nc2nccn3c(-c4ccc(OC)c(F)c4F)cnc23)ccc1C(=O)N[C@H]1CCNC1 [Example 28, 4-[[3-(2,3-difluoro-4-methoxyphenyl)imidazo[1,2-a]pyrazin-8-yl]amino]-2-ethyl-N-[(3S)-pyrrolidin-3-yl]benzamide;hydrochloride]
600	COc1ccc(-c2cnc3c(Nc4ccc(C(=O)NC5CCN(C6CCS(=O)(=O)CC6)CC5)c(C)c4)nccn23)cc1F [Example 24, N-[1-(1,1-dioxothian-4-yl)piperidin-4-yl]-4-[[3-(3-fluoro-4-methoxyphenyl)imidazo[1,2-a]pyrazin-8-yl]amino]-2-methylbenzamide]
180	CCc1cc(Nc2nccn3c(-c4ccc(OC)c(F)c4F)cnc23)ccc1C(=O)NC1(CO)COC1 [Example 27, 4-[[3-(2,3-difluoro-4-methoxyphenyl)imidazo[1,2-a]pyrazin-8-yl]amino]-2-ethyl-N-[3-(hydroxymethyl)oxetan-3-yl]benzamide]
540	COc1ccc(-c2cnc3c(Nc4ccc(C(=O)NC5COC(CN)OC5)c(C)c4)nccn23)cc1 (stereo not drawn) [Example 7, N-(2-(aminomethyl)-1,3-dioxan-5-yl)-4-((3-(4-methoxyphenyl)imidazo [1,2-a]pyrazin-8-yl)amino)-2-methylbenzamide]
2200	COc1ccc(-c2cnc3c(Nc4ccc(C(=O)NC5CCN(C)CC5)c(C)c4)nccn23)cc1 [Example 1, 4-((3-(4-methoxyphenyl)imidazo[1,2-a]pyrazin-8-yl)amino)-2-methyl-N-(1-methylpiperidin-4-yl)benzamide]
260	CCc1cc(Nc2nccn3c(-c4ccc(OC)c(F)c4F)cnc23)ccc1C(=O)N[C@@H]1CCNC1 [Example 3, (R)-4-((3-(2,3-difluoro-4-methoxyphenyl)imidazo[1,2-a]pyrazin-8-yl)amino)-2-ethyl-N-(pyrrolidin-3-yl)benzamide hydrochloride]
5900	COc1ccc(-c2cnc3c(Nc4ccc(C(=O)N(C)C5CCN(C)CC5)cc4)nccn23)cc1 [Example 16, 4-[[3-(4-methoxyphenyl)imidazo[1,2-a]pyrazin-8-yl]amino]-N-methyl-N-(1-methylpiperidin-4-yl)benzamide]
1300	Cc1cc(Nc2nccn3c(-c4ccc(OC(F)F)c(F)c4)cnc23)ccc1C(=O)N(C)C1CCNCC1 [Example 22, 4-[[3-[4-(difluoromethoxy)-3-fluorophenyl]imidazo[1,2-a]pyrazin-8-yI]amino]-N,2-dimethyl-N-piperidin-4-ylbenzamide;hydrochloride]
1100	COc1ccc(-c2cnc3c(Nc4ccc(C(=O)N(C)C5CCNCC5)c(C)c4)nccn23)cc1F [Example 21, 4-[[3-(3-fluoro-4-methoxyphenyl)imidazo[1,2-a]pyrazin-8-yl]amino]-N, 2-dimethyl-N-piperidin-4-ylbenzamide;hydrochloride]

SMILES	IC90 [nM]
Cc1cc(Nc2nccn3c(-c4ccc(OC(F)F)cc4)cnc23)ccc1C(=O)NC1CN2CCC1CC2 (stereo not drawn) [Example 2, 4-((3-(4-(difluoromethoxy)phenyl)imidazo[1,2-a]pyrazin-8-yl)amino)-2-methyl-N-(quinuclidin-3-yl)benzamide]	3200

test system: Acinetobacter baumannii ATCC17961; experiment: as above; type: cell-based; conditions: 90% growth inhibitory concentration, Acinetobacter baumannii ATCC17961, Iso-Sensitest broth, OD 600 nm over 16 h; read-out: ATCC17961 IC90
Description: as §1, §2, §3, §4, §5

IC90 [nM]	SMILES
352	CCc1cc(Nc2nccn3c(-c4ccc(OC)c(F)c4F)cnc23)ccc1C(=O)N[C@@H]1CCN(C(=O)[C@@H](N)CCCNC(=N)N)C1 [Example 47, N-((R)-1-(L-arginyl)pyrrolidin-3-yl)-4-((3-(2,3-difluoro-4-methoxyphenyl)imidazo[1,2-a]pyrazin-8-yl)amino)-2-ethylbenzamide bis(2,2,2-trifluoroacetate)]
238	COc1ccc(-c2cnc3c(Nc4ccc(C(=O)N[C@H]5CC[C@H](N)C5)c(C)c4)nccn23)c(F)c1F (racemic) [Example 54, rac-N-((1R,3R)-3-aminocyclopentyl)-4-((3-(2,3-difluoro-4-methoxyphenyl)imidazo[1,2-a]pyrazin-8-yl)amino)-2-methylbenzamide]
712	CCc1cc(Nc2nccn3c(-c4ccc(OC)c(F)c4F)cnc23)ccc1C(=O)N[C@@H]1CCC[C@@H]1N [Example 71, N-((1R,2S)-2-aminocyclopentyl)-4-((3-(2,3-difluoro-4-methoxyphenyl)imidazo[1,2-a]pyrazin-8-yl)amino)-2-ethylbenzamide dihydrochloride]
274	CCc1cc(Nc2nccn3c(-c4ccc(OC)c(F)c4F)cnc23)ccc1C(=O)NC1CCCCC1NC(=O)[C@@H]1C[C@@H](O)CN1 (stereo partly drawn) [Example 49, (2S,4R)-N-(2-(4-((3-(2,3-difluoro-4-methoxyphenyl)imidazo[1,2-a]pyrazin-8-yl)amino)-2-ethylbenzamido)cyclohexyl)-4-hydroxypyrrolidine-2-carboxamide dihydrochloride]
749	CCc1cc(Nc2nccn3c(-c4ccc(OC)c(F)c4F)cnc23)ccc1C(=O)NC1CCCN(C(=O)[C@@H](N)CCCNC(=N)N)C1 (mixture of isomers) [Example 48, rac-N-(1-(D-arginyl)piperidin-3-yl)-4-((3-(2,3-difluoro-4-methoxyphenyl)imidazo[1,2-a]pyrazin-8-yl)amino)-2-ethylbenzamide bis(2,2,2-trifluoroacetate)]
363	CCc1cc(Nc2nccn3c(-c4ccc(OC)c(F)c4F)cnc23)ccc1C(=O)NC1CCCNC1 (stereo not drawn) [Example 41, 4-((3-(2,3-difluoro-4-methoxyphenyl)imidazo[1,2-a]pyrazin-8-yl)amino)-2-ethyl-N-(piperidin-3-yl)benzamide]
559	CCc1cc(Nc2nccn3c(-c4ccc(OC)c(F)c4F)cnc23)ccc1C(=O)N[C@H]1CC[C@H](NC(=O)[C@@H](N)CCCNC(=N)N)CC1 [Example 45, N-((1S,4r)-4-((S)-2-amino-5-guanidinopentanamido)cyclohexyl)-4-((3-(2,3-difluoro-4-methoxyphenyl)imidazo[1,2-a]pyrazin-8-yl)amino)-2-ethylbenzamide bis(2,2,2-trifluoroacetate)]
189	COc1ccc(-c2cnc3c(Nc4ccc(C(=O)N[C@H]5CC[C@@H](NC(=O)C(C)C)CC5)c(C)c4)nccn23)c(F)c1F [Example 60, rac-4-((3-(2,3-dif!uoro-4-methoxyphenyl)imidazo[1,2-a]pyrazin-8-yl)amino)-N-((1s,4s)-4-isobutyramidocyclohexyl)-2-methylbenzamide]
211	CCc1cc(Nc2nccn3c(-c4ccc(OC)c(F)c4F)cnc23)ccc1C(=O)N[C@H]1CC[C@H](N)C1 (racemic) [Example 43, rac-N-((1R,3 R)-3-aminocyclopentyl)-4-((3-(2,3-difluoro-4-methoxyphenyl)imidazo[1,2-a]pyrazin-8-yl)amino)-2-ethylbenzamide]
201	CCc1cc(Nc2nccn3c(-c4ccc(OC)c(F)c4F)cnc23)ccc1C(=O)N[C@@H]1C[C@@H]1N (racemic) [Example 74, rac-N-((1R,2S)-2-aminocyclopropyl)-4-((3-(2,3-difluoro-4-methoxyphenyl)imidazo[1,2-a]pyrazin-8-yl)amino)-2-ethylbenzamide]
